Ends that are not written are not given here.
Columns and labels:
lactobacilli = assay: activity against lactobacilli (dairy starter culture); type: cell-based; conditions: dairy starter culture comprising lactobacilli
Source text: In separate experiments, the peptide AGG01 (SEQ ID NO: 7) or AG002 (SEQ ID NO: 8) is shown to be suitable for use in a dairy starter culture comprising lactobacilli, especially one or more Lactis spp., in particular one or more organisms selected individually or collectively from the group consisting of: L. helveticus, L. acidophilus, L. lactis, L. bugaricus and L. citrovorum, and especially L. acidophilus.

S. epidermis = conditions: for activity against isolates (in words): S. epidermis otitis externa isolates
milk proteases = assay: Western blotting of CHO cell extracts incubated in bovine milk; conditions: CHO cell extract, 2 hr
Experimental: Western blotting of cell lysates was performed according to standard procedures to confirm expression of peptides in mammalian cells. Briefly, cell extracts and culture supernatants were obtained from CHO cells transfected with the vectors pCMV-SPORT6-AGG01 and pCMV-SPORT6-AGG02, resolved in 18% (w/v) SDS/polyacrylamide electrophoresis gels, transferred by electroblotting onto nitrocellulose membrane and either stained in Ponceau S or probed with polyclonal antisera. In a further example, cell extracts were incubated in bovine milk for 2 hrs prior to their preparation for electrophoresis, to determine stability in milk. Control samples comprises non-transfected CHO cell extracts and supernatants. Membranes were developed using polyclonal rabbit anti-mAGG01 serum that had been produced according to standard procedures, by immunizing rabbits with synthetic peptide (i.e., SEQ ID NO: 7).

S. aureus = conditions: for activity against isolates (in words): S. aureus otitis externa isolates
[1] = system: Staphylococcus aureus (ATCC 25923)
S. schleiferi = conditions: for activity against isolates (in words): S. schleiferi otitis externa isolates
[2] = system: Candida albicans (ATCC 753)
S. pseudointermedin = conditions: for activity against isolates (in words): S. pseudointermedin otitis externa isolates
E. coli DH5α = assay: microbroth dilution method, peptide and antibiotic combination; type: cell-based; conditions: tetracycline or chloramphenicol, E. coli DH5α
Experimental: To determine whether or not antimicrobial peptides as described herein act in a synergistic manner with antibiotic compounds, a microbroth dilution method was performed against E. coli DH5α performed according to the guidelines of the National Committee for Clinical Laboratory Standards.

[3] = heat resistance of antimicrobial peptides; conditions: 200 μg/ml; for antimicrobial bioactivity in phosphate buffer following heat treatment (in words): 10 mM phosphate buffer, up to 56° C. 30 min or 70° C. 15 min; for bioactivity in pasteurized milk following heat treatment (in words): pasteurised milk, up to 68° C. 30 min or 71.7° C. 20 sec, data not shown
[4] = system: all microorganisms tested; conditions: for antimicrobial activity against pathogens that cause mastitis (in words): S. uberis, E. coli, S. aureus and S. agalactiae
S. uberis = conditions: both high and low salt concentrations
Pseudomonas aeruginosa = conditions: for activity against isolates (in words): Pseudomonas aeruginosa otitis externa isolates
[5] = system: Streptococcus agalactiae (ATCC 12927)
[6] = bioactivity of peptides in milk; conditions: 200 μg/ml, 37° C., 30 or 60 min, data not shown
[7] = system: Streptococcus equi equi (ATCC 9527)
[8] = system: Salmonella choleraesuis (ATCC 14028)

| Substance | activity against lactobacilli (in words) (lactobacilli) | MIC (A. pleuropneumoniae) | MIC (S. epidermis) | activity against isolates (in words) (S. epidermis) | MIC (S. aureus) | activity against isolates (in words) (S. aureus) | MIC [1] | MIC (S. choleraesuis) | MIC (S. schleiferi) | activity against isolates (in words) (S. schleiferi) | MIC [2] | MIC (S. pseudointermedin) | activity against isolates (in words) (S. pseudointermedin) | synergy with antibiotics (in words) (E. coli DH5α) | antimicrobial bioactivity in phosphate buffer following heat treatment (in words) [3] | bioactivity in pasteurized milk following heat treatment (in words) [3] | MIC (P. haemolytica) | antimicrobial activity against pathogens that cause mastitis (in words) [4] | MIC (P. multicoda) | MIC (Pseudomonas aeruginosa) | further results |
| --- | --- | --- | --- | --- | --- | --- | --- | --- | --- | --- | --- | --- | --- | --- | --- | --- | --- | --- | --- | --- | --- |
| KRGFGKKLRKRLKKFRNSIKKRLKNFNVVIPIPLP-NH2 [SEQ ID NO: 7] | low activity against lactobacilli | 8 µg/mL | 1 µg/mL | especially strong activity | 2 µg/mL | especially strong activity | 5.72 ± 0.37 µg/mL | 4 to 8 µg/mL | 2 to 4 µg/mL | especially strong activity | 5.48 ± 0.16 µg/mL | 1 to 2 µg/mL | especially strong activity | act synergistically | retain their antimicrobial bioactivity | active in pasteurized milk, even following heat treatment | 1 to 16 µg/mL | exhibited antimicrobial activity | 16 µg/mL | 2 to 4 µg/mL | activity against isolates (in words) (A. pleuropneumoniae; A. pleuropneumoniae BRD/SRD isolates): Intermediate activity; presence of peptide following incubation with bovine milk (Western blot, in words) (milk proteases): present; activity against isolates (in words) (P. haemolytica; P. haemolytica BRD/SRD isolates): possibly also against P. haemolytica; MIC, active against all microorganisms tested ([4]; summary of Table 1): less than 10 μg/ml; inhibiting growth of and/or killing S. uberis (in words) (S. uberis): capable of inhibiting growth of and/or killing S. uberis; activity against isolates (in words) (Pseudomonas aeruginosa): Strong antimicrobial activity; MIC (S. suis): 16 to 32 µg/mL; activity against isolates (in words) (S. suis; S. suis BRD/SRD isolates): weaker activity; MIC [5]: 3.81 µg/mL; MIC (H. somnus): 16 µg/mL; activity against isolates (in words) (H. somnus; H. somnus BRD/SRD isolates): weaker activity; MIC (E. coli): 1 to 8 µg/mL; activity against isolates (in words) (E. coli; E. coli BRD/SRD isolates): especially strong activity; MIC (B. bronchiseptica): 1 to 2 µg/mL; activity against isolates (in words) (B. bronchiseptica; B. bronchiseptica BRD/SRD isolates): especially strong activity; antimicrobial bioactivity in fresh milk (in words) [6]: retained; antimicrobial bioactivity in pasteurized milk (in words) [6]: slightly reduced |
| KRGLWESLKRKATKLGDDIRNTLRNFKIKFPVPRQ-NH2 [SEQ ID NO: 8] | low activity against lactobacilli | 16 µg/mL | 2 µg/mL | especially strong activity | 4 µg/mL | especially strong activity | 5.44 ± 0.49 µg/mL | >64 µg/mL | 2 to 4 µg/mL | especially strong activity | 10.01 ± 0.47 µg/mL | 1 µg/mL | especially strong activity | act synergistically | retain their antimicrobial bioactivity | reduced or inhibited | 4 to 64 µg/mL | has antimicrobial activity | 8 to 32 µg/mL | 8 to 32 µg/mL | MIC [7]: 4.85 ± 0.35 µg/mL; MIC [8]: 9.32 ± 0.38 µg/mL; activity against isolates (in words) (Pseudomonas aeruginosa): slightly weaker activity; MIC (S. suis): 4 to 8 µg/mL; MIC [5]: 1.2 µg/mL; MIC (H. somnus): 32 µg/mL; MIC (E. coli): 8 to 32 µg/mL; MIC (B. bronchiseptica): 32 µg/mL; antimicrobial bioactivity in fresh milk (in words) [6]: reduced or inhibited; antimicrobial bioactivity in pasteurized milk (in words) [6]: reduced or inhibited |
